ChEMBL document CHEMBL5338731, “Development of Neuropeptide Hemokinin-1 Analogues with Antimicrobial and Wound-Healing Activity” (J Med Chem, 2023)
≈ marks a conversion by molar mass, not a printed value. Each block holds one molecule with its values, some of them ahead of it. Calls of active or inactive are those of the source. No cut-off for these calls is given here.

Assays:
Mus musculus [1] = species on record: Mus musculus; assay: Wound healing activity in Kunming mouse full-thickness excisional wound model assessed as increase in wound closure at 1 10^-7M, TOP BID and measured upto 8 days by image analysis; format: functional, organism-based; conditions: time <= 8.0 day
Escherichia coli [2] = assay: Antimicrobial activity against Escherichia coli ATCC 25922 assessed as inhibition of bacterial growth incubated for 18 hrs by serial dilution method; format: functional
Escherichia coli [3] = assay: Antimicrobial activity against Escherichia coli ML-35 assessed as inhibition of bacterial growth incubated for 18 hrs by serial dilution method; format: functional
Pseudomonas aeruginosa [4] = assay: Antimicrobial activity against Pseudomonas aeruginosa ATCC 27853 assessed as inhibition of bacterial growth incubated for 18 hrs by serial dilution method; format: functional
Pseudomonas aeruginosa [5] = assay: Antimicrobial activity against Pseudomonas aeruginosa PAO1 assessed as inhibition of bacterial growth incubated for 18 hrs by serial dilution method; format: functional
Staphylococcus aureus [6] = assay: Antimicrobial activity against Staphylococcus aureus ATCC 25923 assessed as inhibition of bacterial growth incubated for 18 hrs by serial dilution method; format: functional
Staphylococcus aureus [7] = assay: Antimicrobial activity against Staphylococcus aureus ATCC 29213 assessed as inhibition of bacterial growth incubated for 18 hrs by serial dilution method; format: functional
Bacillus subtilis = assay: Antimicrobial activity against Bacillus subtilis ATCC 23857 assessed as inhibition of bacterial growth incubated for 18 hrs by serial dilution method; format: functional
[8] = Hemolytic activity in mouse erythrocytes assessed as haemoglobin release at 400 uM incubated for 1 hrs by microplate reader method; format: toxicity, cell-based, Erythrocyte; conditions: read-out: Activity
RAW264.7 [9] = assay: Anti-inflammatory activity in LPS-stimulated mouse RAW264.7 cells assessed as inhibition of NO production at 16 uM incubated for 24 hrs by Griess reagent based assay; format: functional, cell-based
[10] = Cytotoxicity against mouse RAW264.7 cells assessed as cell survival rate at 16 uM incubated for 24 hrs by MTT assay; format: toxicity, cell-based; conditions: read-out: Survival
RAW264.7 [11] = assay: Anti-inflammatory activity against LPS-stimulated mouse RAW264.7 cells assessed as reduction in TNF-alpha mRNA expression level at 1 to 16 uM incubated for 4 hrs by RT-qPCR analysis; format: functional, cell-based; conditions: dose 1-16 µM
RAW264.7 [12] = assay: Anti-inflammatory activity against LPS-stimulated mouse RAW264.7 cells assessed as reduction in IL-1beta mRNA expression level at 1 to 16 uM incubated for 4 hrs by RT-qPCR analysis; format: functional, cell-based; conditions: dose 1-16 µM
RAW264.7 [13] = assay: Anti-inflammatory activity against LPS-stimulated mouse RAW264.7 cells assessed as reduction in IL-6 mRNA expression level at 1 to 16 uM incubated for 4 hrs by RT-qPCR analysis; format: functional, cell-based; conditions: dose 1-16 µM
Lipopolysaccharide (LPS) = assay: Binding affinity to Escherichia coli O111:B4 LPS assessed as dissociation constant by ITC assay
Mus musculus [14] = species on record: Mus musculus; assay: Wound healing activity in Kunming mouse full-thickness excisional wound model with splints assessed as increase in wound healing rate at 1 10^-7M, TOP BID and measured upto 8 days by image analysis; format: functional, organism-based; conditions: time <= 8.0 day
NIH3T3 [15] = assay: Induction of cell proliferation in mouse NIH3T3 cells assessed as increase in cell viability at 0.1 to 1000 nM incubated for 48 hrs by MTT assay; format: functional, cell-based; conditions: dose 0.1-1000 nM
NIH3T3 [16] = assay: Induction of cell migration in mouse NIH3T3 cells assessed as […] at 0.1 to 1000 nM incubated for 48 hrs by phase-contrast microscopy based scratch wound healing assay; format: functional; conditions: dose 0.1-1000 nM
HEK293 [17] = assay: Induction of cell proliferation in human HEK293 cells expressing NK1R assessed as increase in cell viability at 0.1 to 1000 nM incubated for 48 hrs by MTT assay; format: functional, cell-based; conditions: dose 0.1-1000 nM
HEK293 [18] = assay: Induction of cell proliferation in human HEK293 cells assessed as increase in cell viability at 0.1 to 1000 nM incubated for 48 hrs by MTT assay; format: functional, cell-based; conditions: dose 0.1-1000 nM
Cell membrane [19] = assay: Induction of cell membrane disruption in Staphylococcus aureus ATCC 25923 assessed as distinct wrinkling in cell morphology at 2 times MIC incubated for 2 hrs by SEM analysis; format: subcellular
Mus musculus [20] = species on record: Mus musculus; assay: Wound healing activity in Kunming mouse full-thickness excisional wound model assessed as increase in wound closure at 0.1 to 10 uM, TOP BID and measured upto 8 days by image analysis; format: functional, organism-based; conditions: dose 0.1-10 µM, time <= 8.0 day
Mus musculus [21] = species on record: Mus musculus; assay: Antimicrobial activity in Staphylococcus aureus ATCC 25923 infected Kunming mouse excisional wound model assessed as decrease in bacterial growth at 1 10^-4M, TOP BID and measured upto 8 days by image analysis; format: functional, organism-based; conditions: time <= 8.0 day
Mus musculus [22] = species on record: Mus musculus; assay: Wound healing activity in Staphylococcus aureus ATCC 25923 infected Kunming mouse excisional wound model assessed as increase in wound repair at 1 10^-4M, TOP BID and measured upto 8 days by image analysis; format: functional, organism-based; conditions: time <= 8.0 day
Mus musculus [23] = species on record: Mus musculus; assay: Wound healing activity in STZ-induced Kunming mouse diabetic wound model assessed as increase in wound repair at 1 10^-7M, TOP BID and measured upto 8 days by image analysis; format: functional, organism-based; conditions: time <= 8.0 day
Escherichia coli [24] = assay: Bactericidal activity against Escherichia coli ATCC 25922 assessed as reduction in colony forming unit at 1 times MIC and measured after 120 mins by time-kill kinetics assay; format: functional, organism-based
Escherichia coli [25] = assay: Bactericidal activity against Escherichia coli ATCC 25922 assessed as reduction in colony forming unit at 2 times MIC and measured after 90 mins by time-kill kinetics assay; format: functional, organism-based
Escherichia coli [26] = assay: Bactericidal activity against Escherichia coli ATCC 25922 assessed as reduction in colony forming unit at 4 times MIC and measured after 60 mins by time-kill kinetics assay; format: functional, organism-based
Staphylococcus aureus [27] = assay: Bactericidal activity against Staphylococcus aureus ATCC 25923 assessed as reduction in colony forming unit at 1 to 4 times MIC and measured after 120 mins by time-kill kinetics assay; format: functional, organism-based
Staphylococcus aureus [28] = assay: Bactericidal activity against Staphylococcus aureus ATCC 25923 assessed as reduction in colony forming unit at 2 times MIC and measured after 120 mins by time-kill kinetics assay; format: functional, organism-based
Cell membrane [29] = assay: Induction of outer cell membrane permeability in Escherichia coli ATCC 25922 assessed as increase fluoresence intensity at 1 to 8 times of MIC and measured every mins for 15 mins by NPN uptake assay; format: subcellular
Cell membrane [30] = assay: Induction of inner cell membrane permeabilization in Escherichia coli ML-35 assessed as increase in absorbance at 1 to 8 times of MIC and measured every 5mins for 90 mins by ONPG beta-galactosidase based assay; format: subcellular
Cell membrane [31] = assay: Induction of cell membrane disruption in Escherichia coli ATCC 25922 assessed as PI uptake at 2 times MIC incubated for 1 hrs by PI staining based confocal laser scanning microscopy; format: subcellular
Cell membrane [32] = assay: Induction of cell membrane disruption in Staphylococcus aureus ATCC 25923 assessed as PI uptake at 2 times MIC incubated for 1 hrs by PI staining based confocal laser scanning microscopy; format: subcellular
Cell membrane [33] = assay: Induction of cell membrane disruption in Escherichia coli ATCC 25922 assessed as distinct wrinkling in cell morphology at 2 times MIC incubated for 2 hrs by SEM analysis; format: subcellular
Cell membrane [34] = assay: Induction of cell membrane disruption in Escherichia coli ATCC 25922 assessed as membrane blebbing at 2 times MIC incubated for 2 hrs by SEM analysis; format: subcellular
Cell membrane [35] = assay: Induction of cell membrane disruption in Staphylococcus aureus ATCC 25923 assessed as membrane blebbing at 2 times MIC incubated for 2 hrs by SEM analysis; format: subcellular
Cell membrane [36] = assay: Induction of cell membrane disruption in Escherichia coli ATCC 25922 assessed as separation between outer membrane and cytoplasmic membrane at 2 times MIC incubated for 2 hrs by TEM analysis; format: subcellular
Cell membrane [37] = assay: Induction of cell membrane disruption in Escherichia coli ATCC 25922 assessed as sparse cytoplasmic distribution at 2 times MIC incubated for 2 hrs by TEM analysis; format: subcellular
Cell membrane [38] = assay: Induction of cell membrane disruption in Escherichia coli ATCC 25922 assessed as coagulation of cytoplasmic elements at 2 times MIC incubated for 2 hrs by TEM analysis; format: subcellular
Cell membrane [39] = assay: Induction of cell membrane disruption in Staphylococcus aureus ATCC 25923 assessed as separation between […] at 2 times MIC incubated for 2 hrs by TEM analysis; format: subcellular
Cell membrane [40] = assay: Induction of cell membrane disruption in Staphylococcus aureus ATCC 25923 assessed as sparse cytoplasmic distribution at 2 times MIC incubated for 2 hrs by TEM analysis; format: subcellular
Cell membrane [41] = assay: Induction of cell membrane disruption in Staphylococcus aureus ATCC 25923 assessed as coagulation of cytoplasmic elements at 2 times MIC incubated for 2 hrs by TEM analysis; format: subcellular
RAW264.7 [42] = assay: Cytotoxicity against mouse RAW264.7 cells assessed as reduction in cell viability at 1 to 16 uM incubated for 24 hrs by MTT assay; format: toxicity, cell-based; conditions: raw264.7, 24 h, dose 1-16 µM

Molecule: H-LKKWLKKWTGKASQFFGLM-NH2
Activity (Mus musculus [1]): Active
MIC (Escherichia coli [2]): 2 µM
MIC (Escherichia coli [3]): 2 µM
MIC (Pseudomonas aeruginosa [4]): 4 µM
MIC (Pseudomonas aeruginosa [5]): 4 µM
MIC (Staphylococcus aureus [6]): 4 µM
MIC (Staphylococcus aureus [7]): 8 µM
MIC (Bacillus subtilis): 2 µM
hemolysis at 1 h, 400 µM [8]: 7.88%
inhibition (RAW264.7 [9]): Active
viability at 24 h, 16 µM [10]: > 90%
Activity (RAW264.7 [11]): Dose-Dependent Effect
Activity (RAW264.7 [12]): Dose-Dependent Effect
Activity (RAW264.7 [13]): Dose-Dependent Effect
Kd (Lipopolysaccharide (LPS)): 25 µM
Activity (Mus musculus [14]): Active
Activity (NIH3T3 [15]): Active
Activity (NIH3T3 [16]): Active
Activity (HEK293 [17]): Active
Activity (HEK293 [18]): inactive

Molecule: H-LKKWLKKWTLKASQFFGLM-NH2
Activity (Mus musculus [1]): Active
Activity (Cell membrane [19]): Active
MIC (Escherichia coli [2]): 2 µM
MIC (Escherichia coli [3]): 2 µM
MIC (Pseudomonas aeruginosa [4]): 2 µM
MIC (Pseudomonas aeruginosa [5]): 2 µM
MIC (Staphylococcus aureus [6]): 2 µM
MIC (Staphylococcus aureus [7]): 4 µM
MIC (Bacillus subtilis): 2 µM
hemolysis at 1 h, 400 µM [8]: 19.5%
inhibition (RAW264.7 [9]): Active
viability at 24 h, 16 µM [10]: > 90%
Activity (RAW264.7 [11]): Dose-Dependent Effect
Activity (RAW264.7 [12]): Dose-Dependent Effect
Activity (RAW264.7 [13]): Dose-Dependent Effect
Kd (Lipopolysaccharide (LPS)): 13.4 µM
Activity (Mus musculus [20]): inactive
Activity (Mus musculus [14]): Active
Activity (NIH3T3 [15]): Active
Activity (NIH3T3 [16]): Active
Activity (HEK293 [17]): Active
Activity (HEK293 [18]): inactive
Activity (Mus musculus [21]): Active
Activity (Mus musculus [22]): inactive
Activity (Mus musculus [23]): Active
Activity (Escherichia coli [24]): Active
Activity (Escherichia coli [25]): Active
Activity (Escherichia coli [26]): Active
Activity (Staphylococcus aureus [27]): Active
Activity (Staphylococcus aureus [28]): Active
Activity (Cell membrane [29]): Dose-Dependent Effect
Activity (Cell membrane [30]): Active
Activity (Cell membrane [31]): Active
Activity (Cell membrane [32]): Active
Activity (Cell membrane [33]): Active
Activity (Cell membrane [34]): Active
Activity (Cell membrane [35]): Active
Activity (Cell membrane [36]): Active
Activity (Cell membrane [37]): Active
Activity (Cell membrane [38]): Active
Activity (Cell membrane [39]): Active
Activity (Cell membrane [40]): Active
Activity (Cell membrane [41]): Active

MIC (Escherichia coli [2]): > 128 µM
MIC (Escherichia coli [3]): > 128 µM
MIC (Pseudomonas aeruginosa [4]): > 128 µM
MIC (Pseudomonas aeruginosa [5]): > 128 µM
MIC (Staphylococcus aureus [6]): > 128 µM
MIC (Staphylococcus aureus [7]): > 128 µM
MIC (Bacillus subtilis): > 128 µM
Molecule: CSCC[C@H](NC(=O)[C@H](CC(C)C)NC(=O)CNC(=O)[C@H](Cc1ccccc1)NC(=O)[C@H](Cc1ccccc1)NC(=O)[C@H](CCC(N)=O)NC(=O)[C@H](CO)NC(=O)[C@H](C)NC(=O)[C@H](CCCCN)NC(=O)CNC(=O)[C@@H](N)[C@H](C)O)C(N)=O
Activity (Mus musculus [1]): Active
hemolysis at 1 h, 400 µM [8]: 5.05%
inhibition (RAW264.7 [9]): inactive
Activity (RAW264.7 [42]): Non-Toxic
Activity (NIH3T3 [15]): Active
Activity (NIH3T3 [16]): Active
Activity (HEK293 [17]): Active
Activity (HEK293 [18]): inactive

MIC (Escherichia coli [2]): 4 µM (≈ 1.46 µg/mL)
MIC (Escherichia coli [3]): 16 µM (≈ 5.85 µg/mL)
MIC (Pseudomonas aeruginosa [4]): > 128 µM
MIC (Pseudomonas aeruginosa [5]): > 128 µM
MIC (Staphylococcus aureus [6]): < 1 µM
MIC (Staphylococcus aureus [7]): 2 µM (≈ 0.731 µg/mL)
MIC (Bacillus subtilis): 8 µM (≈ 2.92 µg/mL)
Molecule: CC1(C)S[C@@H]2[C@H](NC(=O)[C@H](N)c3ccc(O)cc3)C(=O)N2[C@H]1C(=O)O [AMOXICILLIN]
